According to patent publication US5391751A, “2,2-dimethylchromene derivatives, process for their preparation and pharmaceutical compositions in which they are present” (priority 1987, dated 1995):
pIC50: −log10 of the molar value.

What was measured:
isolated rat portal vein = experiment: Isolated rat portal vein: inhibition of spontaneous contractile activities; design: species or system rat (male Sprague Dawley); conditions: 0.25 h, 37° C., 15 min per concentration
Method: Male Sprague Dawley rats (250-300 g) are stunned and then bled after their throats have been cut. The portal vein, ligated in situ at two points 15 mm apart, is isolated, cut longitudinally and then mounted vertically in an experimental cell containing a physiological solution, at 37° C., of the following composition (mmol/1): NaCl:137; KC1:5.4; MgCl2 :1.05; CaCl2 :[…]; NaH2 PO4 :12; NaHCO3 :[…]; glucose: 11.5, into which a mixture of gases containing 95% of oxygen and 5% of carbon dioxide is bubbled.
The vein is subjected to a tension of 500 mg. After a period of stabilization (about 1 h 30 min), the spontaneous contractile activities are recorded with the aid of an isometric sensor. Each measurement is performed successively on 4 preparations.
The results are expressed in the form of the molar concentrations which causes a 50 per cent inhibition of the spontaneous contractile activities (IC50).

[1] = tested on: guinea-pig papillary muscle; experiment: Guinea-pig papillary muscle: ventricular action potential (microelectrode method); design: species or system guinea-pig (male Albino Charles River); conditions: for pIC50: Cavia porcellus, 0.5 h, 36° C., 60 beats per minute, 30 minutes of perfusion per concentration, read-out: IC50: concentration which produces a 50 per cent reduction in the duration of the action potential
Method: Male Albino Charles River guinea-pigs (300-400 g) are stunned and then bled after their throats have been cut. The heart is isolated and opened and the right papillary muscle is excised and then kept alive in an experimental cell containing a physiological solution at 36° C. (composition described above).
The preparation is stimulated with the aid of a bipolar electrode connected to a stimulator (frequency =60 beats per minute). The ventricular action potential is measured by the conventional microelectrode method. The characteristic parameters were measured on the action potentials (AP) before and after the introduction of the test product at 3 successive increasing concentrations (30 minutes of perfusion per concentration). The concentration which produces a 50 per cent reduction in the duration of the AP is indicated (IC50).

[2] = tested on: spontaneously hypertensive rats (SHR); experiment: Antihypertensive activity on vigilant spontaneously hypertensive rats (SHR); type: in vivo, rat (male SHR, Wistar strain)
Method: The experiment is performed on male SHR (of the Wistar strain) aged between 11 and 12 weeks; under pentobarbital anesthesia, a catheter is implanted in a carotid artery on the day before the experiment. In the experiment, the diastolic pressure (DP) and systolic pressure (SP) of the vigilant animals are recorded continuously 1 hour before and up to 2 hours after administration of the product. The heart rate (HR) is determined from the pulse pressure and recorded continuously for the same time.
The products were administered orally in a volume of 2 ml per 100 g of body weight after suspension in a 5% aqueous solution of gum arabic.

in vivo = type: in vivo; conditions: mouse, in vivo; mice, oral administration
vigilant dogs = experiment: Antiarrhythmic activity on vigilant dogs (acute infarction); type: in vivo, dog; conditions: orally, 0.03 mg/kg and 0.1 mg/kg
Method: The method used is the one described by Dupuis et al. (Br. J. Pharmacol., 1976, 58, p. 409), in which an acute infarction is caused by the insertion of a copper spiral into the coronary circulation, with the thorax closed off. The ECG is measured by telemetry and the extrasystoles are analyzed and counted automatically While the animal is being monitored by an internal television circuit. The products were administered orally to animals presenting at least 50 per cent of extrasystoles.

mice = experiment: in vivo; type: in vivo; conditions: oral administration
[3] = Overall comparison of activity, toxicity and therapeutic index with reference product; conditions: in the majority of the tests

CC1(C)Oc2ccc(C#N)cc2[C@@H](N2CCCC2=O)[C@@H]1O (relative stereo) [Product A, trans-6-cyano-4-(2-oxopyrrolidin-1-yl)-2,2-dimethyl-chroman-3-ol, reference compound]
pIC50 (isolated rat portal vein): 7.17 | pIC50 [1]: 4.80 | Duration of the effect ([2]; 0.10 mg/kg p.o.): 60 min | Maximum decrease in mean blood pressure (± s.e.) ([2]; 0.10 mg/kg p.o.): 30 ± 10 mm of mercury | Duration of the effect ([2]; 0.20 mg/kg p.o.): 90 min | Maximum decrease in mean blood pressure (± s.e.) ([2]; 0.20 mg/kg p.o.): 56 ± 11 mm of mercury | LD50 (in vivo): 500 to 1000 mg/kg

CC1(C)C=C(n2ccccc2=O)c2cc(C#N)ccc2O1 [SR 44866, 6-Cyano-4-(1,2-dihydro-2-oxopyrid-1-yl)-2,2-dimethylchromene]
pIC50 (isolated rat portal vein): 8.15 | pIC50 [1]: 5.82 | Concentration producing 50 per cent reduction in action potential duration: times lower than that of product A ([1]; versus product A): 10 times | Duration of the effect ([2]; 0.02 mg/kg p.o.): 90 min | Maximum decrease in mean blood pressure (± s.e.) ([2]; 0.02 mg/kg p.o.): 34 ± 6 mm of mercury | Duration of the effect ([2]; 0.03 mg/kg p.o.): > 120 min | Maximum decrease in mean blood pressure (± s.e.) ([2]; 0.03 mg/kg p.o.): 41 ± 6 mm of mercury | Antiarrhythmic activity (reducing the number of extrasystoles or restoring a sinus rhythm) (vigilant dogs): substantial antiarrhythmic activity | LD50 (in vivo): 1000 mg/kg | LD0 (mice): 500 mg/kg | Activity relative to product A [3]: about 10 times

CC1(C)C=C(N2CCCC2=O)c2cc(C#N)ccc2O1 [Product B, 6-cyano-4-(2-oxopyrrolidin-1-yl)-2,2-dimethylchromene]
pIC50 (isolated rat portal vein): 7.15

CC1(C)C=C(n2ccccc2=O)c2cc([N+](=O)[O-])ccc2O1 [SR 45509, 4-(1,2-Dihydro-2-oxopyrid-1-yl)-2,2-dimethyl-6-nitrochromene]
pIC50 (isolated rat portal vein): 8.66

CC(=O)c1ccc2c(c1)C(n1ccccc1=O)=CC(C)(C)O2 [SR 45510, 6-Acetyl-4-(1,2-dihydro-2-oxopyrid-1-yl)-2,2-dimethylchromene]
pIC50 (isolated rat portal vein): 7.96

CC1(C)Oc2ccc(C#N)cc2[C@@H](n2ccccc2=O)[C@@H]1O (relative stereo) [Product C, trans-6-cyano-4-(1,2-dihydro-2-oxopyrid-1-yl)-2,2-dimethylchroman-3-ol, reference compound]
pIC50 (isolated rat portal vein): 7.05 | pIC50 [1]: 4.70

CC1(C)C=C(n2ccccc2=O)c2cc(Cl)ccc2O1 [SR 45435, 6-Chloro-4-(1,2-dihydro-2-oxopyrid-1-yl)-2,2dimethylchromene]
pIC50 (isolated rat portal vein): 8.10 | Duration of the effect ([2]; 0.20 mg/kg p.o.): > 120 min | Maximum decrease in mean blood pressure (± s.e.) ([2]; 0.20 mg/kg p.o.): 70 ± 8 mm of mercury

CC1(C)Oc2ccc(Cl)cc2[C@@H](n2ccccc2=O)[C@@H]1O (relative stereo) [Product E, trans-6-chloro-4-(1,2-dihydro-2-oxopyrid-1-yl)-2,2-dimethylchroman-3-ol]
pIC50 (isolated rat portal vein): 6.72

CC(=O)c1ccc2c(c1)[C@@H](n1ccccc1=O)[C@H](O)C(C)(C)O2 (relative stereo) [Product G, trans-6-acetyl-4-(1,2-dihydro-2-oxopyrid-1-yl)-2,2-dimethylchroman-3-ol]
pIC50 (isolated rat portal vein): 6.72

CC1(C)Oc2ccc([N+](=O)[O-])cc2[C@@H](n2ccccc2=O)[C@@H]1O (relative stereo) [Product F, trans-4-(1,2-dihydro-2-oxopyrid-1-yl)-2,2-dimethyl-6-nitrochroman-3-ol]
pIC50 (isolated rat portal vein): 7.80

CC1(C)Oc2ccc(Br)cc2[C@@H](n2ccccc2=O)[C@@H]1O (relative stereo) [Product D, trans-6-bromo-4-(1,2-dihydro-2-oxopyrid-1-yl)-2,2-dimethylchroman-3-ol]
pIC50 (isolated rat portal vein): 6.60

CC1(C)C=C(n2ccccc2=O)c2cc(Br)ccc2O1 [SR 45374, 6-Bromo-4-(1,2-dihydro-2-oxopyrid-l-yl)-2,2dimethylchromene]
pIC50 (isolated rat portal vein): 8.10 | Duration of the effect ([2]; 0.10 mg/kg p.o.): > 120 min | Maximum decrease in mean blood pressure (± s.e.) ([2]; 0.10 mg/kg p.o.): 32 ± 6 mm of mercury
